Consider 19 molecules from paper PMC7847937, “Search for Antimicrobial Activity Among Fifty-Two Natural and Synthetic Compounds Identifies Anthraquinone and Polyacetylene Classes That Inhibit Mycobacterium tuberculosis” (Frontiers in Microbiology, 2021).

Structures are written as SMILES. ≈ marks a conversion by molar mass, not a printed value. Read-outs that look alike come from different tables or passages of the source.

Broadly, the IC50 is the concentration that inhibits the measured activity by half. For orientation: MIC means the lowest concentration found to suppress growth. As usually defined, the melting point is the temperature, or range, at which the solid turns liquid.

One data set deals with THP-1 cells. The settings on record: cited from earlier work.
The test system of data set [1] is human monocytic THP-1 cell line. The data set can be described thus: Cytotoxicity assay in THP-1 monocytes (CellTiter-Blue, 24 h). It counts as cell-based. Conditions: for IC50: Homo sapiens; for toxicity (in words): compared to the other active compounds. (In general: Resazurin is reduced to fluorescent resorufin, in cell work by metabolically active cells.)
Data set [2] relates to Mycobacterium tuberculosis H37Rv. The data set is described as follows: MIC determination by resazurin microtiter plate assay (REMA) with CellTiter-Blue. The settings on record: for MIC: M. tuberculosis H37Rv, 7 days, two-fold dilutions 100 to 1.56 μg/mL, Gompertz fit; for antimycobacterial activity (in words): dose response, Figure 6. It counts as cell-based.
The subject of a further data set is human monocyte cells. Conditions: cited from earlier work.
Data set [3] has as its system Mycobacterium tuberculosis H37Rv. The data set is described as follows: Compound library screen against M. tuberculosis at 100 μg/mL (CellTiter-Blue viability). It counts as cell-based. The settings on record: library screen at 100 μg/mL, 7 days.
The next data set has as its system AML12 hepatocytes. Conditions: cited from earlier work.
Where [4] appears, read: THP-1 cells, 24 h treatment, 200 to 1.56 μg/mL, read-out: IC50.
Setting [5] is: Mycobacterium tuberculosis, H37RV, 168 h, read-out: MIC.

`CC(C)=CCc1c(O)ccc(C(=O)/C=C/c2ccc(O)cc2)c1O` [Compound C1, Isobavachalcone]: the “cytotoxic concentration 50% (CC50)” value in the data set with THP-1 cells was 11.65 µg/mL. Moreover, the 50% inhibitory concentration (IC50) in data set [1] (setting [4]) came to 45.9 µg/mL (≈ 141 µM).

For `COC(=O)C1=C(N)Oc2cc(O)c3c(C)cc(=O)oc3c2C1c1ccc([N+](=O)[O-])cc1` (stereo not drawn) [Compound C10], in data set [1] (setting [4]), the 50% inhibitory concentration (IC50) stood at 64.2 µg/mL (≈ 151 µM). For the same molecule, the “toxicity (in words)” value in data set [1] is on record as “low toxicity”. The minimum inhibitory concentration (MIC) is 29.13 µg/mL (≈ 68.6 µM) in data set [2] and 25 to 71 µg/mL (≈ 58.9 to 167 µM) in data set [2] (setting [5]).

The molecule `COC(=O)/C(C#N)=C/C=C/c1ccccc1` [Compound C13] displayed an IC50 in data set [1] (THP-1, 24 h) of 95.9 µg/mL (≈ 450 µM). In addition, in data set [2] (setting [5]), the MIC is at least 100 µg/mL. For the same molecule, the “antimycobacterial activity (in words)” value in data set [2] is “weak activity”. Also, the “toxicity to human monocyte cells (in words)” value with human monocyte cells is given as “moderately toxic”.

In the case of `COC(=O)C1=C(N)Oc2cc(O)cc(O)c2C1c1ccc(Cl)cc1` (stereo not drawn) [Compound C14], the 50% inhibitory concentration (IC50) in data set [1] (setting [4]) was 47.2 µg/mL (≈ 136 µM). Besides, in data set [2] (setting [5]), the MIC was at least 100 µg/mL. Also, in data set [2], the “antimycobacterial activity (in words)” value is reported as “weak antimycobacterial activity”. The “toxicity to human monocyte cells (in words)” value with human monocyte cells is “moderately toxic”.

Consider `COC(=O)C1=C(N)Oc2cc(O)cc(O)c2C1c1ccc(Br)cc1` (stereo not drawn) [Compound C15], for which the MIC in data set [2] (setting [5]) is at least 100 µg/mL.

`COC(=O)C1=C(N)Oc2cc(O)cc(O)c2C1c1ccc([N+](=O)[O-])cc1` (stereo not drawn) [Compound C16]: the “anti-M. tuberculosis activity (in words)” value in data set [3] was “not active”.

`CC1(C)C=Cc2c(ccc(C(=O)/C=C/c3ccc(O)cc3)c2O)O1` [Compound C21, 4-hydroxylonchocarpine]: the “anti-M. tuberculosis activity (in words)” value in data set [3] was “not mycobactericidal”.

In the case of `COc1c(C=O)c(O)cc2c1C(=O)c1ccccc1C2=O` [Compound C22, Damnacanthal], the “cytotoxic concentration 50% (CC50)” value in the data set with THP-1 cells is 8.87 µg/mL. Besides, the IC50 in data set [1] (setting [4]) turned out to be 21.4 µg/mL (≈ 75.9 µM). In addition, the minimum inhibitory concentration (MIC) in data set [2] was 13.07 µg/mL (≈ 46.3 µM); in data set [2] (setting [5]) it was below 20 µg/mL.

Turning to `CC1(C)C=Cc2cc3c(cc2O1)O[C@H]1c2ccc(O)cc2OC[C@@H]31` [Compound C23, Isoneorautenol], the “concentration up to which no cytotoxicity was shown” value in the data set on AML12 hepatocytes is above 123.46 µM. Besides, the IC50 in data set [1] (setting [4]) was determined as 44.3 µg/mL (≈ 137 µM). Further, the MIC in data set [2] is 49.22 µg/mL (≈ 153 µM); in data set [2] (setting [5]), 25 to 71 µg/mL (≈ 77.6 to 220 µM).

For `CC(C)=CCc1c(O)c(CC=C(C)C)c2c(c1O)C(=O)C[C@@H](c1ccc(O)c(O)c1)O2` [Compound C24, 6,8-diprenyleriodictyol], the minimal inhibitory concentration (MIC) in data set [2] (setting [5]) is at least 100 µg/mL.

Take `COc1c(C)c(O)cc2c1C(=O)c1ccccc1C2=O` [Compound C25, rubiadin 1-methyl ether]: the “anti-M. tuberculosis activity (in words)” value in data set [3] is on record as “no anti-M. tuberculosis activity”.

On to `CCOC(=O)C1=C(C)NC(C)=C(C(=O)OCC)C1c1ccc([N+](=O)[O-])cc1` [Compound C36], for which the minimum inhibitory concentration (MIC) in data set [2] (setting [5]) is at least 100 µg/mL.

In the case of `CCOC(=O)C1=C(C)NC(C)=C(C(=O)OCC)C1c1ccc(O)c(OC)c1` [Compound C38], the MIC in data set [2] (setting [5]) is at least 100 µg/mL.

Turning to `CCOC(=O)C1=C(C)NC(C)=C(C(=O)OCC)C1c1cc(OC)c(OC)c(OC)c1` [Compound C40], in data set [2] (setting [5]), the MIC was at least 100 µg/mL.

For the molecule `CCOC(=O)C1=C(C)NC(C)=C(C(=O)OCC)C1c1cc(OC)c(O)c(OC)c1` [Compound C41], the MIC in data set [2] (setting [5]) is at least 100 µg/mL.

`CCOC(=O)C1=C(C)N(c2ccccc2)C(C)=C(C(=O)OCC)C1c1ccc(O)cc1` [Compound C45]: the MIC in data set [2] (setting [5]) is at least 100 µg/mL.

Turning to `CCOC(=O)C1=C(C)N(c2ccccc2)C(C)=C(C(=O)OCC)C1c1cc(OC)c(O)c(OC)c1` [Compound C49], the MIC in data set [2] (setting [5]) was at least 100 µg/mL.

With `CC#CC#CC#CCCCO` [Compound C51, Deca-4,6,8-triyn-1-ol], the IC50 in data set [1] (setting [4]) is 170 µg/mL (≈ 1170 µM). The “toxicity (in words)” value in data set [1] is given as “low toxicity”.

In turn, `OCCCC#CC#CC#CC#CCCCO` [Compound C53, Tetradeca-4,6,8,10-tetrayne-1,14-diol] registered a melting point of 116.5 to 117 °C. Besides, the IC50 in data set [1] (setting [4]) turned out to be 17 µg/mL (≈ 79.3 µM). In addition, the MIC in data set [2] was found to be 17.88 µg/mL (≈ 83.4 µM). Also, the MIC in data set [2] (setting [5]) is below 20 µg/mL.
